#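 Protocol summary: plate cells (96-well), add compound at 5 concentrations, incubate 48 h, interpolate endpoints linearly. Definition used: TGI = concentration required for complete inhibition of growth.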
# How the values were obtained:
# Assay in all cases: NCI-60 cell line screen, 48 h
# [1] = system: K-562 leukemia
# [2] = system: UACC-257 melanoma
# [3] = system: EKVX NSCLC
# [4] = system: MDA-MB-435
# [5] = system: DU-145 prostate
# [6] = system: HOP-92 NSCLC
# [7] = system: SR leukemia
# [8] = system: RXF 393 renal
# [9] = system: SK-MEL-5 melanoma
# [10] = system: SF-295 CNS
# [11] = system: HS 578T breast
# [12] = system: HL-60(TB) leukemia
# [13] = system: NCI-H226 lung
# [14] = system: SN12C renal
# [15] = system: TK-10 renal
# [16] = system: HOP-62 NSCLC
# [17] = system: OVCAR-4 ovarian
# [18] = system: SW-620 colon
# [19] = system: M14 melanoma
# [20] = system: MOLT-4 leukemia
# [21] = system: OVCAR-8 ovarian
# [22] = system: SK-MEL-28 melanoma
# [23] = system: MCF7 breast
# [24] = system: SK-MEL-2 melanoma
# [25] = system: HCT-15 colon
# [26] = system: UACC-62 melanoma
# [27] = system: IGROV1 ovarian
# [28] = system: NCI-H522 lung
# [29] = system: OVCAR-5 ovarian
# [30] = system: T-47D breast
# [31] = system: BT-549 breast
# [32] = system: A549 NSCLC
# [33] = system: SNB-19 CNS
# [34] = system: KM12 colon
# [35] = system: LOX IMVI melanoma
# [36] = system: U251 CNS
# [37] = system: RPMI-8226 leukemia
# [38] = system: OVCAR-3 ovarian
# [39] = system: NCI-H23 lung
# [40] = system: HT29 colon
# [41] = system: SK-OV-3 ovarian
# [42] = system: PC-3 prostate
# [43] = system: COLO 205 colon
# [44] = system: SF-268 CNS
# [45] = system: UO-31 renal
# [46] = system: MDA-N
# [47] = system: CCRF-CEM leukemia
# [48] = system: SNB-75 CNS
# [49] = system: NCI/ADR-RES ovarian
# [50] = system: A498 renal
# [51] = system: ACHN renal
# [52] = system: CAKI-1 renal
# [53] = system: HCT-116 colon
# [54] = system: MALME-3M melanoma
# [55] = system: SF-539 CNS
# [56] = system: 786-0 renal
# [57] = system: MDA-MB-231 breast
# [58] = system: NCI-H460 lung
smiles,measurement,setting,value
NCCNS(=O)(=O)c1ccc(N)cc1,TGI,[1],> 100 µM
same,TGI,[2],> 100 µM
same,TGI,[3],> 100 µM
same,TGI,[4],> 100 µM
same,TGI,[5],> 100 µM
same,TGI,[6],> 100 µM
same,TGI,[7],> 100 µM
same,TGI,[8],> 100 µM
same,TGI,[9],> 100 µM
same,TGI,[10],> 100 µM
same,TGI,[11],> 100 µM
same,TGI,[12],41.5 µM
same,TGI,[13],> 100 µM
same,TGI,[14],> 100 µM
same,TGI,[15],> 100 µM
same,TGI,[16],> 100 µM
same,TGI,[17],> 100 µM
same,TGI,[18],> 100 µM
same,TGI,[19],> 100 µM
same,TGI,[20],> 100 µM
same,TGI,[21],> 100 µM
same,TGI,[22],> 100 µM
same,TGI,[23],> 100 µM
same,TGI,[24],> 100 µM
same,TGI,[25],> 100 µM
same,TGI,[26],> 100 µM
same,TGI,[27],> 100 µM
same,TGI,[28],> 100 µM
same,TGI,[29],> 100 µM
same,TGI,[30],> 100 µM
same,TGI,[31],> 100 µM
same,TGI,[32],> 100 µM
same,TGI,[33],> 100 µM
same,TGI,[34],> 100 µM
same,TGI,[35],> 100 µM
same,TGI,[36],> 100 µM
same,TGI,[37],> 100 µM
same,TGI,[38],> 100 µM
same,TGI,[39],> 100 µM
same,TGI,[40],> 100 µM
same,TGI,[41],> 100 µM
same,TGI,[42],> 100 µM
same,TGI,[43],> 100 µM
same,TGI,[44],> 100 µM
same,TGI,[45],> 100 µM
same,TGI,[46],> 100 µM
same,TGI,[47],> 100 µM
same,TGI,[48],> 100 µM
same,TGI,[49],> 100 µM
same,TGI,[50],> 100 µM
same,TGI,[51],> 100 µM
same,TGI,[52],> 100 µM
same,TGI,[53],> 100 µM
same,TGI,[54],> 100 µM
same,TGI,[55],> 100 µM
same,TGI,[56],> 100 µM
same,TGI,[57],> 100 µM
COc1cc2c3c(c1O)-c1c(ccc(OC)c1OC)CC3N(C)CC2 (configuration not stated),TGI,[2],> 100 µM
same,TGI,[3],> 100 µM
same,TGI,[4],> 100 µM
same,TGI,[5],> 100 µM
same,TGI,[6],> 100 µM
same,TGI,[7],> 100 µM
same,TGI,[8],> 100 µM
same,TGI,[9],> 100 µM
same,TGI,[10],> 100 µM
same,TGI,[11],> 100 µM
same,TGI,[12],> 100 µM
same,TGI,[13],> 100 µM
same,TGI,[14],> 100 µM
same,TGI,[15],> 100 µM
same,TGI,[17],> 100 µM
same,TGI,[18],> 100 µM
same,TGI,[19],> 100 µM
same,TGI,[20],> 100 µM
same,TGI,[21],> 100 µM
same,TGI,[23],> 100 µM
same,TGI,[24],> 100 µM
same,TGI,[25],> 100 µM
same,TGI,[26],> 100 µM
same,TGI,[27],> 100 µM
same,TGI,[28],> 100 µM
same,TGI,[29],> 100 µM
same,TGI,[30],> 100 µM
same,TGI,[31],> 100 µM
same,TGI,[32],> 100 µM
same,TGI,[33],> 100 µM
same,TGI,[34],> 100 µM
same,TGI,[35],> 100 µM
same,TGI,[36],> 100 µM
same,TGI,[37],> 100 µM
same,TGI,[38],> 100 µM
same,TGI,[39],> 100 µM
same,TGI,[40],> 100 µM
same,TGI,[41],> 100 µM
same,TGI,[42],> 100 µM
same,TGI,[43],> 100 µM
same,TGI,[44],> 100 µM
same,TGI,[58],> 100 µM
same,TGI,[45],> 100 µM
same,TGI,[46],> 100 µM
same,TGI,[47],> 100 µM
same,TGI,[48],> 100 µM
same,TGI,[49],> 100 µM
same,TGI,[50],> 100 µM
same,TGI,[51],> 100 µM
same,TGI,[52],> 100 µM
same,TGI,[53],> 100 µM
same,TGI,[55],> 100 µM
same,TGI,[56],> 100 µM
same,TGI,[57],> 100 µM
O=C(CSc1nnc(-c2ccccn2)s1)N/N=C/c1ccc([N+](=O)[O-])cc1,TGI,[1],> 100 µM
same,TGI,[2],> 100 µM
same,TGI,[4],> 100 µM
same,TGI,[5],49.5 µM
same,TGI,[6],42.3 µM
same,TGI,[7],> 100 µM
same,TGI,[8],37.3 µM
same,TGI,[9],> 100 µM
same,TGI,[10],> 100 µM
same,TGI,[11],> 100 µM
same,TGI,[12],> 100 µM
same,TGI,[13],> 100 µM
same,TGI,[14],> 100 µM
same,TGI,[15],79 µM
same,TGI,[16],> 100 µM
same,TGI,[17],> 100 µM
same,TGI,[18],> 100 µM
same,TGI,[19],> 100 µM
same,TGI,[20],> 100 µM
same,TGI,[21],> 100 µM
same,TGI,[22],> 100 µM
same,TGI,[23],> 100 µM
same,TGI,[24],> 100 µM
same,TGI,[25],> 100 µM
same,TGI,[26],> 100 µM
same,TGI,[27],> 100 µM
same,TGI,[28],> 100 µM
same,TGI,[29],> 100 µM
same,TGI,[30],> 100 µM
same,TGI,[31],> 100 µM
same,TGI,[32],> 100 µM
same,TGI,[33],92.5 µM
same,TGI,[34],> 100 µM
same,TGI,[35],> 100 µM
same,TGI,[36],41.2 µM
same,TGI,[38],> 100 µM
same,TGI,[39],> 100 µM
same,TGI,[40],> 100 µM
same,TGI,[41],> 100 µM
same,TGI,[42],> 100 µM
same,TGI,[43],> 100 µM
same,TGI,[44],71.9 µM
same,TGI,[58],> 100 µM
same,TGI,[45],4.19 µM
same,TGI,[46],> 100 µM
same,TGI,[47],> 100 µM
same,TGI,[48],10.3 µM
same,TGI,[49],> 100 µM
same,TGI,[50],75.3 µM
same,TGI,[51],> 100 µM
same,TGI,[52],> 100 µM
same,TGI,[53],> 100 µM
same,TGI,[54],> 100 µM
same,TGI,[55],> 100 µM
same,TGI,[56],> 100 µM
same,TGI,[57],49.1 µM
